# Data as given in US20260226096A1, “MODIFIED PROTEINS OR PEPTIDES FOR COVALENT TARGETING” (YEDA RESEARCH AND DEVELOPMENT CO. LTD., priority 2023, published 2026).
# Non-standard residues stand in square brackets, D forms with d. Residues, ends and D or L forms follow the SMILES beside them. Primed or numbered codes have the meaning given here. No end group written: not given here. *: point of attachment. Pra′ = its azide, alkyne or alkene has reacted where a group follows in round brackets; methacrylate = methacrylate-modified cysteine (mC); pT = C[C@@H](OP(=O)(O)O)[C@H](N)C(=O)O; mC = methacrylate-modified cysteine; pS = N[C@@H](COP(=O)(O)O)C(=O)O; BODIPY = not defined here; Dab = NCC[C@H](N)C(=O)O; X1 = C=C(C*)C(=O)OCC; ClAc = O=C(CCl)*
# T1: 14-3-3σ (Homo sapiens, UniProt P31947)
# T1 sequence (P31947 with tags, fused parts or gaps): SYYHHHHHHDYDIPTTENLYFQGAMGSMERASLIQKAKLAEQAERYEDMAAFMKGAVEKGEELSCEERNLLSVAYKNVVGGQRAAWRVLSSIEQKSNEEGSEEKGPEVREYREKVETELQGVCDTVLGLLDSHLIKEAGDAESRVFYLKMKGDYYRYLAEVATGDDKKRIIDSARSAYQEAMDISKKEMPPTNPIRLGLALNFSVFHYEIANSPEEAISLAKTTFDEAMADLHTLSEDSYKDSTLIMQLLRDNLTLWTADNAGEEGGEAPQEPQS
# T2: human 14-3-3σ with an N-terminal His6-tag (SEQ ID 28) (human)
# T2 chain: T1 sequence (P31947 with tags, fused parts or gaps)
# What was measured:
# [1] = biological target: T1, 14-3-3σ; test: Covalent labeling of 14-3-3σ by peptides, intact protein LC/MS; settings: for labeling of 14-3-3σ within 5 hours / labeling of 14-3-3σ after 48 hours / covalent labeling of 14-3-3σ with the expected adduct mass: 14-3-3σ 2 μM; for labeling of 14-3-3σ within 5 hours: time course; for labeling of 14-3-3σ after 48 hours: room temperature; for covalent labeling of 14-3-3σ with the expected adduct mass: peptide 200 μM, 4° C. overnight
# [2] = Peptide stability in buffer and intrinsic reactivity with lysine and cysteine; format: physicochemical; settings: room temperature, timescale of days
# Procedure: The intrinsic reactivity and stability of the active peptides with their labeling rates were compared). Their stability was tested in buffer and in the presence of lysine and cysteine at room temperature. […] The reactivity towards cysteine was much higher—the peptides reacted with cysteine to generate both Michael adducts as well as substitution products in which the thiol peptide is released. Peptides SEQ ID 3, SEQ ID 8 and SEQ ID 11 were more than >50% reacted within 2.5 hours.
# The LS/MS runs for peptides were performed using the same instrument with a C18-CSH column (300 Å, 1.7 μm, […]) using a gradient starting from 1% B for 1 minute, rising to 95% B in 4.5 minutes, holding at 95% B for 0.75 minutes, then decreasing to 1% B in 0.75 minutes and holding at 1% B for 1 minute. MS data were collected at a range of 80-2500 m/z, using identical conditions for ionization as with the protein.
# [3] = tested on: 14-3-3 isoforms; test: Binding to 14-3-3 isoforms using LC-MS qTOF; settings: protein:peptide 1:5, overnight, 4° C.
# Procedure: The 14-3-3 isoforms were buffer-exchanged into complexation buffer (20 mM HEPES pH 7.5, 100 mM NaCl, 10 mM MgCl2) and mixed with the peptides (3/8) in a 1:5 molar stoichiometry (protein:peptide) at a final concentration of 10 mg/mL. The complexes were buffer-exchanged into milliQ+0.1% formic acid after overnight incubation at 4° C.
# UPLC-QToF-MS analysis was performed on a Waters (Milford, MA, USA) Acquity I-Class UPLC system coupled to a Waters Xevo G2 quadrupole time-of-flight (QToF) mass spectrometer. The devices were controlled by MassLynx Software (version 4.1, Waters, MA, USA). Full scan in positive electrospray ionization (ESI+) mode was used as MS acquisition mode with an acquisition range from 200-2000 m/z. […] The samples concentration were 0.01-0.1 mg/mL, and the injection volume was 1 μL. Deconvolution was performed by the MaxEnt1 option of the MassLynx software. Errors were calculated using the MaxEnt Errors option.
# [4] = Differential scanning fluorimetry for Im-E9 complexes; format: physicochemical; settings: SYPRO Orange, protein 40 μM
# Procedure: SYPRO Orange (X5000 stock) was diluted 200-fold in buffer, and from this stock 13 μl were added to each sample, diluting the protein to 40 μM. Each sample were split into 3 technical replicates and heated in a thermal cycler over 1.5 hours to 95° C. while measuring the fluorescence.
# [5] = biological target: T1, 14-3-3σ; test: Fluorescence polarization competition/binding experiment; settings: 14-3-3σ 0.25 μM, fluorescent peptide 5 nM, 27° C., immediately after mixing
# [6] = biological target: T2, human 14-3-3σ with an N-terminal …; test: intact protein LC/MS; 200 µM peptide, 2 µM 14-3-3σ, 4° C. overnight
# [7] = biological target: T2, human 14-3-3σ with an N-terminal …; test: 2 µM 14-3-3σ with 5 µM peptide, 48 hours at room temperature
# [8] = biological target: T2, human 14-3-3σ with an N-terminal …; test: time course, intact protein LC/MS; 5 µM peptide, 2 µM 14-3-3σ
# [9] = biological target: T2, human 14-3-3σ with an N-terminal …; test: not told how it was measured; probe of the fluorescence polarization experiment
molecule,measurement,setting,value
"C=C(CSC[C@H](NC(=O)[C@H](COP(=O)(O)O)NC(=O)[C@H](Cc1c[nH]cn1)NC(=O)[C@H](C)NC(=O)[C@H](CCCNC(=N)N)NC(C)=O)C(=O)N1CCC[C@H]1C(=O)N[C@@H](C)C(=O)N[C@@H](CO)C(=O)N[C@@H](CC(C)C)C(=O)N[C@@H](CCC(N)=O)C(N)=O)C(=O)OCC [SEQ ID 8, Ac-RAHpSmCPASLQ-NH2] (Ac-RAH[pS]C(X1)PASLQ-NH2)",labeling of 14-3-3σ within 5 hours,"[1]; peptide 5 μM, 25° C.",80%
same,labeling of 14-3-3σ after 48 hours,[1]; peptide 5 μM,90%
same,covalent labeling of 14-3-3σ with the expected adduct mass,[1],35%
same,stability in buffer over days,[2],formed a new product with the same mass as the original peptide
"Ac-RAHpSSPASLX-NH2 (Ac-RAH[pS]SPASL[Dab](ClAc)-NH2) [SEQ ID 12, chloroacetamide warhead peptide that reacts with 14-3-3σ via Cys38, used as a positive control]",labeling of 14-3-3 isoforms,[3],labeled only the sigma isoform
"C=C(CSC[C@H](NC(=O)[C@H](CO)NC(=O)[C@H](C)NC(=O)[C@@H]1CCCN1C(=O)[C@H](CO)NC(=O)[C@H](COP(=O)(O)O)NC(=O)[C@H](Cc1c[nH]cn1)NC(=O)[C@H](C)NC(=O)[C@H](CCCNC(=N)N)NC(C)=O)C(=O)N[C@@H](CCC(N)=O)C(N)=O)C(=O)OCC [SEQ ID 11, Ac-RAHpSSPASmCQ-NH2] (Ac-RAH[pS]SPASC(X1)Q-NH2)",labeling of 14-3-3σ after 48 hours,[1]; peptide 5 μM,100%
same,free (non-labelled) 14-3-3σ remaining within 2.5 hours,"[1]; peptide 5 μM, 25° C.",less than 5%
same,covalent labeling of 14-3-3σ with the expected adduct mass,[1],11%
same,stability in buffer over days,[2],formed a new product with the same mass as the original peptide
"Im9: immunity protein, inhibitory partner of the E9 nuclease, in its free (unmodified) form",unfolding (melting) temperature,[4],around 50 °C
Ac-SHpTLmCS-NH2 (Ac-SH[pT]LC(methacrylate)S-NH2) [SEQ ID 2],displacement of the fluorescent binder at 200 μM,[5]; peptide 200 μM,all peptides except peptide SEQ ID 2 displaced the binder
"C=C(CSC[C@H](NC(=O)[C@H](COP(=O)(O)O)NC(=O)[C@H](C)NC(=O)[C@H](CO)NC(=O)[C@H](CCCNC(=N)N)NC(C)=O)C(=O)N1CCC[C@H]1C(=O)N[C@@H](CO)C(=O)N[C@@H](CC(C)C)C(N)=O)C(=O)OCC [SEQ ID 3, Ac-RSApSmCPSL-NH2] (Ac-RSA[pS]C(X1)PSL-NH2)",labeling of 14-3-3σ within 5 hours,"[1]; peptide 5 μM, 25° C.",60%
same,labeling of 14-3-3σ after 48 hours,[1]; peptide 5 μM,~ 75%
same,covalent labeling of 14-3-3σ with the expected adduct mass,[1],51%
same,stability in buffer over days,[2],remained unmodified even after 3 days
Ac-RAHpSSPAmCLQ-NH2 (Ac-RAH[pS]SPAC(methacrylate)LQ-NH2) [SEQ ID 10],displacement of the fluorescent binder at 5 μM,[5]; peptide 5 μM,had sufficient affinity to displace the fluorescent binder
"Ac-SH[pT][mC]PS-NH2 [Peptide SEQ ID 1, Ac-SHpTmCPS-NH2]",covalent labeling (%),[6],~10%
"Ac-RAH[pS]SPASC(methacrylate)Q-NH2 [Peptide SEQ ID 11, Ac-RAHpSSPASmCQ-NH2]",covalent labeling (%),[7],100%
same,covalent labeling (%),[6],11%
"Ac-RSA[pS][mC]PSL-NH2 [Peptide SEQ ID 3, Ac-RSApSmCPSL-NH2]",covalent labeling (%),[7],~75%
same,covalent labeling (%),[6],51%
same,fold increase of the rate of labeling at 37° C. against 25° C.,[8],~4 fold
"Ac-RAH[pS][mC]PASLQ-NH2 [Peptide SEQ ID 8, Ac-RAHpSmCPASLQ-NH2]",covalent labeling (%),[7],90%
same,covalent labeling (%),[6],35%
same,fold increase of the rate of labeling at 37° C. against 25° C.,[8],~4 fold
"[Pra′](BODIPY)RAH[pS]PASL[Dab] (not fully specified (N-terminus, C-terminus); reading uncertain) [BODIPY-labeled noncovalent binder for 14-3-3σ (SEQ ID 38)]",Kd,[9],~100 nM
